Reference: patent publication US9101642B2, “Ticagrelor co-crystal” (AstraZeneca AB, priority 2011, dated 2015)

Assays:
[1] = Micro-dissolution in blank Fassif (fasted intestinal fluid without micelle forming components); type: physicochemical; settings: blank Fassif pH 6.5, 9 mg in 25 ml, mean of n = 2
Method: (§1) Micro-dissolution investigations were performed on 9 mg of a sample of Compound A:acetyl salicylic acid co-crystal (prepared as described in Example 4) or Compound A Form II in both 25 ml of (i) Fasted intestinal fluid (Fassif) without micelle forming components (termed blank Fassif) and (ii) of Simulated Gastric Fluid (SGF). The samples were magnetically stirred and aliquots were taken at appropriate time intervals, centrifuged and the supernatant analysed by HPLC and the concentration of Compound A measured as a function of time.
Fasted intestinal fluid without micelle forming components (blank Fassif) media was prepared from 0.348 g NaOH pellets, 3.954 g NaH2PO4.H2O and 6.186 g NaCl in 1 L milli-Q water. The pH was then adjusted to pH 6.5 with 1N NaOH or 1N HCl.

[2] = Micro-dissolution in Simulated Gastric Fluid (SGF); type: physicochemical; settings: 9 mg in 25 ml, mean of n = 2
Method: as §1
Simulated Gastric Fluid (SGF) media was prepared by adding 131.5 ml 1M HCl to 4 g NaCl and the resulting solution made up to 2 Liters with milli-Q water (de-ionised water).

CCCSc1nc(N[C@@H]2C[C@H]2c2ccc(F)c(F)c2)c2nnn([C@@H]3C[C@H](OCCO)[C@@H](O)[C@H]3O)c2n1 (relative stereo) [Compound A Form II, {1S-[1α,2α, 3β(1S*,2R*),5β]}-3-(7-{[2-(3,4-difluorophenyl)cyclopropyl]amino}-5-(propylthio)-3H-1,2,3-triazolo[4,5-d]pyrimidin-3-yl)-5-(2-hydroxyethoxy)cyclopentane-1,2-diol]
Concentration of Compound A ([1]; time 0 mins): 0 ng/mL
Concentration of Compound A ([1]; time 10 mins): 2950 ng/mL
Concentration of Compound A ([1]; time 20 mins): 3240 ng/mL
Concentration of Compound A ([1]; time 30 mins): 3310 ng/mL
Concentration of Compound A ([1]; time 60 mins): 3510 ng/mL
Concentration of Compound A ([1]; time 240 mins): 3370 ng/mL
Concentration of Compound A ([2]; time 0 mins): 0 ng/mL
Concentration of Compound A ([2]; time 10 mins): 7820 ng/mL
Concentration of Compound A ([2]; time 20 mins): 8100 ng/mL
Concentration of Compound A ([2]; time 30 mins): 8520 ng/mL
Concentration of Compound A ([2]; time 60 mins): 8100 ng/mL
Concentration of Compound A ([2]; time 240 mins): 8450 ng/mL
